The record followed here is paper PMC3683333, “^11C-LY2428703, a positron emission tomographic radioligand for the metabotropic glutamate receptor 1, is unsuitable for imaging in monkey and human brains” (EJNMMI Research, 2013).

Series [1] has as its target T1, mGluR1 (Rattus norvegicus, UniProt P23385).
T1 construct: P2 membrane fractions were prepared from the cerebella of male Sprague–Dawley rats; from tissue; host or cells: rat cerebellum, P2 membrane fraction
The series is described as follows: Saturation binding assay with [^3H]LY456066, rat cerebellar membranes. The following applies: rats; fp from ref 10. The arrangement: species or system Sprague–Dawley rats. As for the experimental part: (§1) P2 membrane fractions were prepared from the cerebella of male Sprague–Dawley rats (n = 3), male rhesus monkeys (n = 3), and female humans (n = 4). […] Nonspecific binding was defined by heterologous displacement of 1 μM LY480084 (mGlu1 antagonist) in select wells. Plates were incubated on ice for 75 min and membranes harvested on 0.3% polyethylenimine pretreated Wallac filter mats using a Tomtec Harvester MachII (Tomtec, Hamden, CT, USA). Dissociation constant (KD) and receptor density (Bmax) values were obtained in GraphPad Prism using standard nonlinear one-site binding equations. Data are presented as mean ± SEM (n = 3 to 4); one-way analysis of variance followed by Tukey's post hoc test.

Series [2] has as its system ABCB1 (P-gp) and ABCG2 (BCRP). Kind of series: Brain PET after blockade of efflux transporters, monkey. The format is in vivo, rhesus monkeys (Macaca mulatta). As for the experimental part: Four male rhesus monkeys (Macaca mulatta, 11.7 ± 2.9 kg) were imaged in 13 PET scans. Seven scans were performed at baseline, three scans were performed after receptor blocking to calculate nondisplaceable uptake (VND), and three scans were performed after blockade of the efflux transporters at the blood–brain barrier. Receptors were blocked by mixing ^11C-LY2428703 with an mGluR1 antagonist - either nonradioactive LY2428703 (2.0 mg/kg) or LY2332084 (0.5 mg/kg) - in the same syringe. Efflux transporters were blocked in two scans by injecting DCPQ, which selectively blocks the efflux transporter ABCB1 (P-gp), and in one scan by injecting elacridar, which blocks both ABCB1 (P-gp) and ABCG2 (BCRP).
PET images were acquired using either the high-resolution research tomograph (HRRT) or the FOCUS 220 scanner (Siemens/CPS, Knoxville, TN, USA) for 120 min in 33 frames, with frame durations ranging from 30 s to 5 min, and correcting for attenuation and scatter. About 2 h before the PET scan, anesthesia was initiated with ketamine (10 mg/kg IM) and then maintained with 1% to 3% isoflurane. Electrocardiograph, body temperature, heart rate, and respiration rate were measured throughout the experiment. At baseline, the injected activity was 210 ± 51 MBq (specific activity at time of injection 43.2 ± 25.6 GBq/μmol, mass dose 6.9 ± 4.7 nmol or 0.62 ± 0.35 nmol/kg). Tissue time-activity curves were obtained from semi-automatic regions of interest encompassing the whole cerebellum and the rest of the brain. Brain uptake was expressed as standardized uptake value (SUV). Arterial input function was obtained for eight scans: four at baseline, two after blocking with nonradioactive LY2428703, one after blocking with DCPQ, and one after blocking with elacridar. Blood samples (0.5 mL each) were drawn through a port connected to the femoral artery at 15-s intervals until 2 min, followed by 1-mL samples at 3, 5, 10, 30, 60, 90, and 120 min. The plasma time-activity curve was corrected for the fraction of unchanged radioligand following the procedure detailed above.
(§2) Volumes of distribution (VT) were obtained by nonlinear compartmental analysis. Goodness-of-fit by nonlinear least squares analysis was evaluated using the Akaike Information Criterion (AIC) and Model Selection Criterion (MSC). The most appropriate model is that with the smallest AIC and the largest MSC score. Goodness-of-fit by the compartment models was compared with F statistics. A value of P < 0.05 was considered significant for F statistics. The identifiability of kinetic variables was calculated as standard error obtained from the diagonal of the covariance matrix and expressed as a percentage of the rate constant.

Series [3] concerns the target T2, mGluR1 (Homo sapiens, UniProt Q13255). Kind of series: Brain PET at baseline, human. The format is in vivo. The arrangement: from tissue; host or cells: brain of living healthy human volunteers (in vivo PET). The following applies: for VT: mean ± SD.
Excerpt: Three healthy females participated in the study (29 ± 2-year old, 69 ± 13 kg). All were free from current medical and psychiatric illnesses, as assessed by medical history, physical examination, electrocardiogram, urinalysis including drug screening, and blood tests (complete blood count, serum chemistries, thyroid function test, and antibody screening for syphilis, HIV, and hepatitis B). The National Institutes of Health Central Nervous System Institutional Review Board approved the protocols and the consent forms. Written informed consent was obtained from all subjects.
PET images were acquired using the GE Advance scanner (GE Healthcare, Milwaukee, WI, USA) for 120 min. An 8-min ^68Ge transmission scan was obtained before the injection of the radiotracer for attenuation correction. The mean injected activity was 328 ± 12 MBq. The specific activity at the time of injection was 87.2 ± 34.7 GBq/μmol, which corresponded to 5.5 ± 2.3 nmol (0.082 ± 0.037 nmol/kg) of carrier. Blood samples (1 mL each) were drawn from the radial artery at 15-s intervals until 150 s, followed by 3-mL samples at 3, 4, 6, 8, 10, 15, 20, 30, 40, and 50 min, and 4.5 mL at 60, 75, 90, and 120 min. The unchanged parent fraction in plasma and fP of ^11C-LY2428703 were determined as described above.
To identify brain regions, magnetic resonance (MR) images were obtained using a 3-T GE Signa device (GE Healthcare, Milwaukee, WI, USA). T1-weighted structural images were acquired with a voxel size of 0.86 mm × 0.86 mm × 1.2 mm. The image acquisition sequences were the time of repetition (7.3 ms), echo time length (2.8 ms), and flip angle (6°).
The average PET image created from all frames was first coregistered to the individual MR image. Then, both MR and all PET images were spatially normalized to a standard anatomic orientation (Montreal Neurological Institute (MNI) space) based on transformation parameters from the MR images. A volume-of-interest template as implemented in PMOD (PMOD Technologies Ltd, Zurich, Switzerland) was used to obtain brain time-activity curves.
as §2

Series [4] deals with T2, mGluR1. The series is described as follows: Saturation binding assay with [^3H]LY456066, human cerebellar membranes. The arrangement: P2 membrane fractions were prepared from the cerebella of; from tissue; host or cells: human cerebellum, P2 membrane fraction. The note with it: humans. As for the experimental part: as §1

T2 sequence (Q13255 19-1194): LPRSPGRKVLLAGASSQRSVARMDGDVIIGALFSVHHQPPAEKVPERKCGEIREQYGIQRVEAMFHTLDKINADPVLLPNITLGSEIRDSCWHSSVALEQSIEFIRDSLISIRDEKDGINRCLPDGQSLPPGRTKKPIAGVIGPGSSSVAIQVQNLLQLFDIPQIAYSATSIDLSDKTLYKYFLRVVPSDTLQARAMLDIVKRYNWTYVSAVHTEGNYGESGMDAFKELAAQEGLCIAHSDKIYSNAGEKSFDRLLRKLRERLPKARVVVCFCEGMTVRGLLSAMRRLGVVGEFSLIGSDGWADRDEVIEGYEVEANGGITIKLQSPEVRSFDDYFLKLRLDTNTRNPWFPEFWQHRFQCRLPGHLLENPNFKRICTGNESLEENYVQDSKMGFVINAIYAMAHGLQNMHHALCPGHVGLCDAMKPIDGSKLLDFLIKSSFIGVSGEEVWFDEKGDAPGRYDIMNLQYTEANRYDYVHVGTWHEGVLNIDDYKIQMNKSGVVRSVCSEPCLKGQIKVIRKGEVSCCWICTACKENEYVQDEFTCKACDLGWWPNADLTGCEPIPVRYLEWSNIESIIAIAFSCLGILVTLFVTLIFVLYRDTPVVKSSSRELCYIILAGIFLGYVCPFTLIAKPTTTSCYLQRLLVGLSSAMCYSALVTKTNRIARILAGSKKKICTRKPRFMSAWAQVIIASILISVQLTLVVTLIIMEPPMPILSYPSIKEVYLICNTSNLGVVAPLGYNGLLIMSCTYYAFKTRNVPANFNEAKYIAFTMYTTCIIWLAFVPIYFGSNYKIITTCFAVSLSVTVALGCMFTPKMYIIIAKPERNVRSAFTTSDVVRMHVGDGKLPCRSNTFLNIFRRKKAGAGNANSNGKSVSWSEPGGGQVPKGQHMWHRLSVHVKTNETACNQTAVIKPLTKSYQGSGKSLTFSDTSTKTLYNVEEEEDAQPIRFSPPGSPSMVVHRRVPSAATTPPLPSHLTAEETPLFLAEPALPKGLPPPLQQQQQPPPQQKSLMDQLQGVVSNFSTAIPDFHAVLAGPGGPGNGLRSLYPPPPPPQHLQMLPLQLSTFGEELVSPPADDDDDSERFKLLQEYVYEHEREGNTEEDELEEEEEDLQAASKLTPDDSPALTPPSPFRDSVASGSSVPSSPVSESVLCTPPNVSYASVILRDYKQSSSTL
T1 sequence (P23385 19-1199): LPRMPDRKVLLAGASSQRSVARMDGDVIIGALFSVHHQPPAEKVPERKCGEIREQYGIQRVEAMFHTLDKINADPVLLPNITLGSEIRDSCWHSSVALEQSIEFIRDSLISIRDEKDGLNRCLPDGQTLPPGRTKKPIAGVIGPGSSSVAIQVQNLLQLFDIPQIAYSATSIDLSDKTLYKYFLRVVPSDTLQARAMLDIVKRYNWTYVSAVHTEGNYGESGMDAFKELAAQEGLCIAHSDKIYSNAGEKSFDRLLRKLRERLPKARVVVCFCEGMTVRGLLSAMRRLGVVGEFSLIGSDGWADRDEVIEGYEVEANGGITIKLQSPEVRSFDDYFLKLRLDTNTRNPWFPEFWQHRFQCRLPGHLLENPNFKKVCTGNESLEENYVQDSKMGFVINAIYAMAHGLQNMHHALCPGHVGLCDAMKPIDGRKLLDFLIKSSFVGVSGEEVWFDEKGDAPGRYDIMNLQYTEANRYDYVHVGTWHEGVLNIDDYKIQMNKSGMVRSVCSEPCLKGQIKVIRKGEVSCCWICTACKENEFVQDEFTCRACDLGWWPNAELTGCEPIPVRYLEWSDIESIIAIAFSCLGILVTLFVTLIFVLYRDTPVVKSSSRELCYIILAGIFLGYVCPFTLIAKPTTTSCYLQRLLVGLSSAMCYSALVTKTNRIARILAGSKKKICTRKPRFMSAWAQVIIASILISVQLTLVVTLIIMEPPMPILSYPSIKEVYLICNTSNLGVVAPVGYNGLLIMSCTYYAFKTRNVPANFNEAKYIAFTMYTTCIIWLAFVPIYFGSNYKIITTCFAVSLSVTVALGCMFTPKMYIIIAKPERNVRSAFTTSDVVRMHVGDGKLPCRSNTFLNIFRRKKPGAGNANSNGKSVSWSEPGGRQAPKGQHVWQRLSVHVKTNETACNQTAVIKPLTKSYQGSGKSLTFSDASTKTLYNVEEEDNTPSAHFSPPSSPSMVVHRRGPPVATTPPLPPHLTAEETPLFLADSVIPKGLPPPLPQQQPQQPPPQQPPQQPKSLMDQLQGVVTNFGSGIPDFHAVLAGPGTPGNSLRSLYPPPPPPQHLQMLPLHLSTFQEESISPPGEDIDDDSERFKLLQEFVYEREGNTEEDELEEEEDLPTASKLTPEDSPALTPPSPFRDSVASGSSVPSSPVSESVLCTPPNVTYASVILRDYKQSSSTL

For `Cc1c(-c2ccc(O[11CH3])cc2)nsc1NC(=O)[C@@H]1C[C@H]1C` [^11C-LY2428703], the “fp × Bmax/KD (=VS), effective BP” value on mGluR1 [1] came out at 0.683; on mGluR1 [4], 0.016. The VT in cerebellum in series [2] (DCPQ experiment: baseline) stood at 4.4 mL/cm^3; in series [2] (after DCPQ blockade (P-gp)), 4.2 mL/cm^3; in series [2] (after elacridar blockade (P-gp and BCRP)), 0.8 mL/cm^3; in series [2] (elacridar experiment: baseline) it was 2.0 mL/cm^3. In addition, in series [2] (based on pharmacological blockade), the “substrate for P-gp or BCRP” value was “not a substrate”. Moreover, on mGluR1 [3] (2TCM, all brain regions), the VT values is on record as below 0.1 mL/cm^3. On mGluR1 [3] (after injection), the “time of brain peak uptake” value worked out at 1.3 ± 0 min. Also, the “time at which brain activity decreased to 50% of the peak” value at mGluR1 [3] (average) is listed as 20 min. Further, the VT on mGluR1 [3] (caudate, two-tissue compartment model) was 0.086 ± 0.024 (22.6%) mL · cm^−3; on mGluR1 [3] (cerebellum, two-tissue compartment model) it was 0.090 ± 0.010 (2.8%) mL · cm^−3; at mGluR1 [3] (frontal cortex, two-tissue compartment model), 0.092 ± 0.016 (14.2%) mL · cm^−3; at mGluR1 [3] (parietal cortex, two-tissue compartment model), 0.087 ± 0.011 (4.9%) mL · cm^−3; on mGluR1 [3] (temporal cortex, two-tissue compartment model) it was 0.102 ± 0.010 (4.4%) mL · cm^−3. Moreover, the “mean VT” value on mGluR1 [3] (two-tissue compartment model) was found to be 0.093 ± 0.012 mL/cm^3. Also, at mGluR1 [3] (without vascular correction), the brain peak uptake turned out to be 1.14 ± 0.18 SUV.
